# Test results: article PMC7568863 (Chemical biology & drug design, 2020)
# What was measured:
# [1] = system: SKMEL28 melanoma cell line; assay: Cell apoptosis assay; type: cell-based; details: IncuCyte Cytotox Green, Total Green Object Integrated Intensity; 30 h post-treatment; triplicates; preliminary assay
# Bfl-1 = details: ref Barile et al., 2017; cited from earlier work
compound,measurement,setting,value
CC1(C)CCC(CN2CCN(c3ccc(C(=O)NS(=O)(=O)c4ccc(NCC5CCOCC5)c([N+](=O)[O-])c4)c(Oc4cnc5[nH]ccc5c4)c3)CC2)=C(c2ccc(Cl)cc2)C1 [ABT199],Induction of apoptosis / cell death in SKMEL28 cells,[1],inactive at the concentrations tested
same,Activity against Bfl-1,Bfl-1,inactive against Bfl-1
